Our source for the IC50 values is patent US8436023B2, “Cyclohexyl-azetidinyl antagonists of CCR2” (Janssen Pharmaceutica N.V., priority 2010, dated 2013).

The structures appear in SMILES notation.

The target in this test is T1, CCR2 (Homo sapiens, UniProt P41597).
T1 construct: host or cells: THP-1 human monocytic cells
T1 sequence (P41597 1-360 isoform P41597-2): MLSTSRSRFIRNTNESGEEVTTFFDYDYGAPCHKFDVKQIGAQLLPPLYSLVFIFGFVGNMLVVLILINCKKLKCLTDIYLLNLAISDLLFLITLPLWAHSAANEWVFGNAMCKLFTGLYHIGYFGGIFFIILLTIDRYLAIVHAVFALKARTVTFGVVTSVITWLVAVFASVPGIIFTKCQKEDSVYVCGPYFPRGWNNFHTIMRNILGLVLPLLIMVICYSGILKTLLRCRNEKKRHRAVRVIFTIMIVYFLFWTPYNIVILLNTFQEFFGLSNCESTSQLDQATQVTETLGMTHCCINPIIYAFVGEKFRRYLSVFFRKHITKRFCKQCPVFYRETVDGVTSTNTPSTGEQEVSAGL
Kind of test: MCP-1 Receptor Binding Assay in THP-1 Cells. To be noted: 0.5 nM 125I labeled MCP-1, 2 hours at 30° C., less polar isomer tested where stated, read-out: Inhibition of MCP-1 Binding IC50, CCR2 Binding. As to the method: MCP-1 Receptor Binding Assay in THP-1 Cells
Human monocytic cell line THP-1 cells were obtained from American Type Culture Collection (Manassas, Va., USA). The THP-1 cells were grown in RPMI-1640 (RPMI: Roswell Park Memorial Institute Medium-cell culture growth media) supplemented with 10% fetal bovine serum in a humidified 5% CO2 atmosphere at 37° C. The cell density was maintained […].
THP-1 (cells were incubated with 0.5 nM ^125I labeled MCP-1 (Perkin-Elmer Life Sciences, Inc. Boston, Mass.) in the presence of varying concentrations of either unlabeled MCP-1 (R & D Systems, Minneapolis, Minn.) or test compound for 2 hours at 30° C. in a 96 well plate. Cells were then harvested onto a filter plate, dried, and 20 μL of Microscint 20 was added to each well. Plates were counted in a TopCount NXT, Microplate Scintillation & Luminescence Counter (Perkin-Elmer Life Sciences, Inc. Boston, Mass.). Blank values (buffer only) were subtracted from all values and drug treated values were compared to vehicle treated values. 1 μM cold MCP-1 was used for nonspecific binding.
Where an IC50 value was not obtained for a particular compound, the percent inhibition is provided at a test concentration of 25 μM.

As to `CC(C)(C)OC(=O)NC1CCC(N2CC(NC(=O)CNc3n[nH]c4ccc(C(F)(F)F)cc34)C2)CC1` (stereo not drawn) [Example 51, (4-{3-[2-(5-Trifluoromethyl-1H-indazol-3-ylamino)-acetylamino]-azetidin-1-yl}-cyclohexyl)-carbamic acid tert-butyl ester], the IC50 (commonly the concentration that inhibits the measured activity by half) turned out to be 87 nM.
As for `CC(C)C1CCC(N2CC(NC(=O)CNc3n[nH]c4ccc(C(F)(F)F)cc34)C2)CC1` (stereo not drawn) [Example 52, N-[1-(4-Isopropyl-cyclohexyl)-azetidin-3-yl]-2-(5-trifluoromethyl-1H-indazol-3-ylamino)-acet amide], the 50% inhibitory concentration (IC50) stood at 370 nM.
`O=C(CNc1n[nH]c2ccc(C(F)(F)F)cc12)NC1CN(C2CCC(n3ccccc3=O)CC2)C1` (stereo not drawn) [Example 53, N-{1-[4-(2-Oxo-2H-pyridin-1-yl)-cyclohexyl]-azetidin-3-yl}-2-(5-trifluoromethyl-1H-indazol-3-ylamino)-acetamide]: the IC50 amounted to 63 nM.
The same measure for `Cn1nc(NCC(=O)NC2CN(C3CCC(O)(c4nccs4)CC3)C2)c2cc(OC(F)(F)F)ccc21` (stereo not drawn) [Example 54, N-[1-(4-Hydroxy-4-thiazol-2-yl-cyclohexyl)-azetidin-3-yl]-2-(1-methyl-5-trifluoromethoxy-1H-indazol-3-ylamino)-acetamide]: 35 nM; for `Cn1nc(NCC(=O)NC2CN(C3CCC(O)(c4cncs4)CC3)C2)c2cc(OC(F)(F)F)ccc21` (stereo not drawn) [Example 55, N-[1-(4-Hydroxy-4-thiazol-5-yl-cyclohexyl)-azetidin-3-yl]-2-(1-methyl-5-trifluoromethoxy-1H-indazol-3-ylamino)-acetamide]: 42 nM.
The same measure for `COc1ccc(C2(O)CCC(N3CC(NC(=O)CNc4nn(C)c5ccc(OC(F)(F)F)cc45)C3)CC2)cn1` (stereo not drawn) [Example 57]: 60 nM.
As to `CC(C)C1CCC(N2CC(NC(=O)CNc3nn(C)c4ccc(OC(F)(F)F)cc34)C2)CC1` (stereo not drawn) [Example 59], the 50% inhibitory concentration (IC50) worked out at 340 nM.
Regarding `CCOC(=O)C1CCC(N2CC(NC(=O)CNc3nn(C)c4ccc(C(O)C(F)(F)F)cc34)C2)CC1` (stereo not drawn) [Example 60, 4-(3-{2-[1-Methyl-5-(2,2,2-trifluoro-1-hydroxy-ethyl)-1H-indazol-3-ylamino]-acetylamino}-azetidin-1-yl)-cyclohexanecarboxylic acid ethyl ester], the IC50 was found to be 2090 nM.
On to `Cn1nc(NCC(=O)NC2CN(C3CCC(O)(c4cncs4)CC3)C2)c2cc(C(O)C(F)(F)F)ccc21` (stereo not drawn) [Example 61, N-[1-(4-Hydroxy-4-thiazol-5-yl-cyclohexyl)-azetidin-3-yl]-2-[1-methyl-5-(2,2,2-trifluoro-1-hydroxy-ethyl)-1H-indazol-3-ylamino]-acetamide], for which the IC50 is 1700 nM.
On to `CCc1ncc(C2(O)CCC(N3CC(NC(=O)CNc4nn(C)c5ccc(C(O)C(F)(F)F)cc45)C3)CC2)s1` (stereo not drawn) [Example 62, N-{1-[4-(2-Ethyl-thiazol-5-yl)-4-hydroxy-cyclohexyl]-azetidin-3-yl}-2-[1-methyl-5-(2,2,2-trifluoro-1-hydroxy-ethyl)-1H-indazol-3-ylamino]-acetamide], for which the IC50 was 1500 nM.
Regarding `Cc1ccc(C2(O)CCC(N3CC(NC(=O)CNc4nn(C)c5ccc(C(O)C(F)(F)F)cc45)C3)CC2)cn1` (stereo not drawn) [Example 63, N-{1-[4-Hydroxy-4-(6-methyl-pyridin-3-yl)-cyclohexyl]-azetidin-3-yl}-2-[1-methyl-5-(2,2,2-trifluoro-1-hydroxy-ethyl)-1H-indazol-3-ylamino]-acetamide], the IC50 amounted to 3400 nM.
The figure for `Cn1nc(NCC(=O)NC2CN(C3CCC(c4ccc5c(c4)OCO5)CC3)C2)c2cc(C(O)C(F)(F)F)ccc21` (stereo not drawn) [Example 64, N-[1-(4-Benzo[1,3]dioxol-5-yl-cyclohexyl)-azetidin-3-yl]-2-[1-methyl-5-(2,2,2-trifluoro-1-hydroxy-ethyl)-1H-indazol-3-ylamino]-acetamide] is 300 nM.
